Data reported in patent US11633383B2, “Dosage principle for drugs useful for treating neoplastic diseases” (Basilea Pharmaceutica International AG, priority 2017, dated 2023).
Blank lines part the entries; values can stand above or below the compound they belong to.

Key:
[1] = Plasma concentrations of BAL27862 (Cmax, AUC) in patients, 2-hour intravenous infusion study; type: in vivo, human; settings: mean
Experimental: (§1) In one clinical trial BAL101553 (dihydrochloride salt) was given as a 2-hour infusion on days 1, 8, and 15 of each 28-day cycle (comparative Example).
(§2) BAL101553 (dihydrochloride salt) for intravenous administration is prepared by reconstitution of lyophilized BAL101553 (dihydrochloride salt) with saline solution or Ringer lactate solution, prior to further dilution with Ringer lactate for intravenous infusion to the patient. The 48-hour infusion is administered via an elastomeric pump (Baxter) using an infusion volume of 120 ml or 240 ml.
2-hour intravenous infusion study: on day 1 of cycle 1 blood samples were collected at pre-dose and where clinically feasible 0.5, 1, 2, 3, 4, 6, 8 and 24 hours after dosing.
(§3) Venous blood samples were collected into chilled 2 ml plastic tubes containing K2-EDTA as an anticoagulant mixed with 20 μl 2M citric acid and kept on ice for 15 minutes. Approximately 1.0 ml plasma was prepared by centrifugation at 1′500×g for 10-15 minutes at 4° C., transferred into new vials and stored at −80° C. until analysis. Plasma concentrations of BAL27862 were determined with a fully validated LC-MS/MS method:
(§4) 50 μl of acetonitrile was added to 25 μl plasma containing stable labelled internal standards (IS). After vortexing, the samples were centrifuged for 10 minutes at 50′000×g at 8° C. and 50 μl of the supernatant was transferred to an empty auto-sampler vial. The extract was separated by liquid chromatography, performed using water (0.1% formic acid) as mobile phase A and acetonitrile (0.1% formic acid) as mobile phase B. The column used was a YMC Hydroshere C18, 2.1×33 mm, 3 μm (YMC Co, Kyoto, Japan). The injection volume was set to 2 μL (full loop).
(§5) Detection was carried out using a triple-stage quadrupole MS/MS (TSQ Vantage, Thermo Fisher
(§6) Scientific, San Jose, Calif., USA) in the selected reaction monitoring mode.
(§7) The following calibration range was applied:
(§8) 1 to 1000 ng/ml for BAL27862 in human plasma ([…], citric acid)
(§9) Calculation of Pharmacokinetic Parameters (exposure [Area Under the Curve—AUC] and peak [Cmax] drug levels) for Human Samples:
(§10) AUC and Cmax of BAL27862 were calculated by non-compartmental analysis (NCA) using Phoenix WinNonLin 7.0 software from Certara.

[2] = Plasma concentrations of BAL27862 (Cmax, AUC) in patients, daily oral administration study; type: in vivo; settings: human, BAL101553 dihydrochloride daily oral, N=7; for AUC: plasma, BAL27862, compared as weekly exposure; for Cmax: BAL27862 in plasma
Experimental: (§11) In another clinical trial BAL101553 (dihydrochloride salt) was given as a daily oral administration in treatment cycles consisting of 28 days of continuous, daily administration to patients in a fasted state (comparative Example).
(§12) BAL101553 (dihydrochloride salt) for oral administration is prepared as a HPMC capsules containing 1 mg active ingredient, 98 mg of mannitol and 1 mg magnesium stearate, or 5 mg active ingredient, 94 mg mannitol and 1 mg magnesium stearate.
Daily oral administration study: on day 1 of cycle 1 blood samples were collected at pre-dose and where clinically feasible 0.5, 1, 2, 3, 4, 6, 8 and 24 hours after intake of study medication.
as §3, §4, §5, §6, §7, §8, §9, §10

[3] = Plasma concentrations of BAL27862 (Cmax, AUC) in patients, 48-hour intravenous infusion study; type: in vivo, human; settings: for AUClast / Cmax: BAL27862 in plasma; for AUC: plasma, BAL27862, compared as weekly exposure
Experimental: (§13) In another clinical trial BAL101553 (dihydrochloride salt) was given as a 48-hour infusion on days 1, 8 and 15 of each 28 day cycle.
as §2
48-hour intravenous infusion study: on day 1 of cycle 1 blood samples were collected at pre-dose and where clinically feasible 0.5, 1, 2, 4, 8, 24, 30, 48, 52, 54, 72, and 168 hours after dosing.
as §3, §4, §5, §6, §7, §8, §9, §10

[4] = cited from earlier work
[5] = Blood pressure measurements in patients treated with BAL101553; type: in vivo, human; settings: cycle 1 day 1
Experimental: On day 1 of cycle 1 of the 2-hour and 48-hour intravenous infusion studies systolic and diastolic blood pressures were measured using a calibrated, automated blood pressure device at various time points, i.e. prior to the first administration of study drug and then at least hourly for the first 4 hours after start of dosing.

[6] = cited from earlier work; remark: listed apart in the source
[7] = Clinical trials of BAL101553: maximum tolerated dose and adverse drug reactions; type: in vivo, human
From the text: as §1, §13, §11, §2, §12

[8] = tested on: tumour; assay: Clinical trials of BAL101553: tumour response; type: in vivo, human
From the text: as §13, §11

[9] = BAL101553 dihydrochloride 45 mg/m^2, 2 hours infusion, N=8, cycle 1 day 1
[10] = BAL101553 dihydrochloride 60 mg/m^2, 2 hours infusion, N=21, cycle 1 day 1
[11] = BAL101553 dihydrochloride 45 mg/m^2, 48 hours infusion, mean, N=3, cycle 1 day 1
[12] = BAL101553 dihydrochloride 70 mg/m^2, 48 hours infusion, mean, N=4, cycle 1 day 1
[13] = BAL101553 dihydrochloride 90 mg/m^2, 48 hours infusion, mean, N=4, cycle 1 day 1
[14] = 2-hour infusion on study days 1, 8 and 15, q28 days, 2016 ASCO poster

AUClast [1, 9]: 4340 h*ng/m | Cmax [1, 9]: 356 ng/m | AUClast [1, 10]: 6040 h*ng/m | Cmax [1, 10]: 498 ng/m | AUC ([2]; 16 mg): 8400 ng·h/mL | AUC ([2]; 20 mg): 12200 ng·h/mL | Cmax ([2]; 16 mg): 131 ng/mL | Cmax ([2]; 20 mg): 134 ng/mL | variability of pharmacokinetic exposure (AUC) ([3]; 48-hour dose regimen versus daily oral regimen): lower variability | AUClast [3, 11]: 3830 h*ng/m | Cmax [3, 11]: 77.7 ng/m | AUClast [3, 12]: 9030 h*ng/m | Cmax [3, 12]: 152 ng/m | AUClast [3, 13]: 12000 h*ng/m | Cmax [3, 13]: 238 ng/m | Cmax ([3]; human, intravenous, BAL101553 dihydrochloride 48-hour infusion, 70 mg/m^2, N=9, read-out: Cmax (mean, ng/ml)): 148 ng/mL | Cmax ([3]; human, intravenous, BAL101553 dihydrochloride 48-hour infusion, 90 mg/m^2, N=4, read-out: Cmax (mean, ng/ml)): 238 ng/mL | AUC ([3]; human, intravenous, BAL101553 dihydrochloride 48-hour infusion, 70 mg/m^2, N=9): 8580 ng·h/mL | AUC ([3]; human, intravenous, BAL101553 dihydrochloride 48-hour infusion, 90 mg/m^2, N=4): 13500 ng·h/mL
SMILES: N#CCCNc1nonc1-c1nc2ccccc2n1CC(=O)c1ccc(N)cc1 [BAL27862, 3-(4-{1-[2-(4-Amino-phenyl)-2-oxo-ethyl]-1H-benzoimidazol-2-yl}-furazan-3-ylamino)-propionitrile]

SMILES: N#CCCNc1nonc1-c1nc2ccccc2n1CC(=O)c1ccc(NC(=O)[C@@H](N)CCCCN)cc1 [BAL101553, (S)-2,6-Diamino-hexanoic acid [4-(2-{2-[4-(2-cyano-ethylamino)-furazan-3-yl]-benzoimidazol-1-yl}-acetyl)-phenyl]-amide]
myocardial ischemia [4, 14]: asymptomatic myocardial ischemia | recommended phase 2 dose [4, 14]: 30 mg/m^2 | vascular effects ([4]; 2-hour infusion, related to peak drug concentration (Cmax), 2016 ASCO poster): dose-dependent vascular effects that were dose-limiting | MTD ([4]; 2-hour intravenous administration, phase I escalation study of WO2015/173341): 60 mg/m^2 | change from baseline in systolic and diastolic blood pressure ([5]; infused over 48 hours, 45 or 70 mg/m^2): neutral blood pressure profile or a minor average change from baseline | change from baseline in systolic and diastolic blood pressure ([5]; infusion duration of 2 hours, 45 or 60 mg/m^2): distinct changes from baseline | water solubility [6]: highly water-soluble | troponin elevation indicative of myocardial damage ([7]; 45 mg/m^2 or 60 mg/m^2, 2-hour infusion): Three patients | troponin elevation indicative of myocardial damage ([7]; 45 mg/m^2 or 70 mg/m^2, 48-hour infusion): not observed | Grade 4 hyponatremia ([7]; 90 mg/m^2 (supra-MTD), 48-hour infusion regimen): no observation of Grade 4 hyponatremia | maximum tolerated dose (MTD) ([7]; 48-hour infusion on days 1, 8 and 15 of each 28 day cycle): 70 mg/m^2 | Serious Grade 4 adverse drug reactions ([7]; 48-hour infusion, 70 mg/m^2, N=9): None | Serious Grade 4 adverse drug reactions ([7]; 48-hour infusion, 90 mg/m^2, N=4): None | maximum tolerated dose (MTD) ([7]; daily oral administration, 28-day cycles, fasted state): 16 mg/day | serious Grade 4 hyponatremia ([7]; daily oral dose of 20 mg/day (supra-MTD)): 2 patients | Serious Grade 4 adverse drug reactions ([7]; daily oral, 16 mg, N=7): None | Serious Grade 4 adverse drug reactions ([7]; daily oral, 20 mg, N=7): 2 patients with | tumour response ([8]; 48-hour infusion regimen, MTD dose (70 mg/m^2)): partial tumour response in a patient | objective responses ([8]; daily oral dose regimen, any dose): no objective responses were observed
